Measurements from ChEMBL document CHEMBL3779792, “Anti-proliferative evaluation of monoterpene derivatives against leukemia” (Eur J Med Chem, 2016).

What was measured:
[1] = Cytotoxicity against human NALM6 cells after 72 hrs by Cell-Titer Glo assay; assay type: functional, cell-based; conditions: NALM-6, 72 h
[2] = Cytotoxicity against human SEM cells after 72 hrs by Cell-Titer Glo assay; assay type: functional, cell-based
HepG2 = experiment: Cytotoxicity against human HepG2 cells after 72 hrs by Cell-Titer Glo assay; assay type: functional, cell-based; conditions: HepG2, 72 h
Raji = experiment: Cytotoxicity against human Raji cells after 72 hrs by Cell-Titer Glo assay; assay type: functional, cell-based
Jurkat = experiment: Cytotoxicity against human Jurkat cells after 72 hrs by Cell-Titer Glo assay; assay type: functional, cell-based
BJ = experiment: Cytotoxicity against human BJ cells after 72 hrs by Cell-Titer Glo assay; assay type: cell-based
HEK293 = experiment: Cytotoxicity against HEK293 cells after 72 hrs by Cell-Titer Glo assay; assay type: cell-based; conditions: Homo sapiens, HEK293, 72 h

Structure (SMILES) | EC50 [1] [µM] | EC50 [2] [µM] | EC50 (HepG2) [µM] | EC50 (Raji) [µM] | EC50 (Jurkat) [µM] | EC50 (BJ) [µM] | EC50 (HEK293) [µM]
C=C[C@@](C)(/C=C/c1ccc(O)cc1)CCC1OC1(C)C (some centres not stated) | > 43.5 | > 36.6 | > 52.1 | > 22.6 | > 49 | > 36.6 | > 36.6
C=C[C@@](C)(/C=C/c1ccc(-c2ccc(Cl)c(Cl)c2)cc1)CCC=C(C)C | > 43.5 | > 36.6 | > 52.1 | > 26 |  | > 36.6 | > 36.6
COc1ccc(/C=C/[C@@](C)(/C=C/c2ccc(O)c(/C=C/C(C)=O)c2)CCC=C(C)C)cc1 | > 43.5 | 8.67 | > 52.1 | > 26 | > 49 | 12.3 | 14.6
C=C[C@@](C)(/C=C/c1ccc(Nc2cc(C(F)(F)F)cc(C(F)(F)F)c2)cc1)CCC=C(C)C | > 43.5 | > 36.6 | > 52.1 | > 26 |  | > 36.6 | > 36.6
C=C[C@@](C)(/C=C/c1ccc(O)c(/C=C/C(N)=O)c1)CCC=C(C)C | > 43.5 | > 36.6 | > 52.1 | > 26 | > 49 | > 36.6 | > 36.6
C=C[C@@](C)(/C=C/c1ccc(O)cc1)CCC=C(C)C [BAKUCHIOL] | 38 | 15.3 | > 52.1 | > 26 | > 49 | > 36.6 | > 36.6
C=C[C@@](C)(/C=C/c1ccc(O)cc1)CC/C=C(\C)CO | > 43.5 | > 36.6 | > 52.1 | > 26 | > 49 | > 36.6 | > 36.6
C=C[C@@](C)(/C=C/c1ccc(Nc2ccc(C(F)(F)F)cc2)cc1)CCC=C(C)C | > 43.5 | > 36.6 | > 52.1 | > 26 |  | > 36.6 | > 36.6
C=C[C@@](C)(/C=C/c1ccc(OCc2ccccc2)cc1)CCC=C(C)C | > 43.5 | > 36.6 | > 52.1 | > 26 | > 49 | > 36.6 | > 36.6
C=C[C@@](C)(/C=C/c1ccc(OS(=O)(=O)C(F)(F)F)cc1)CCC=C(C)C | > 43.5 | > 36.6 | > 52.1 | > 26 | > 49 | > 36.6 | > 36.6
C=C[C@@](C)(/C=C/c1ccc(O)cc1)CC/C=C(\C)C=O | 12.6 | > 36.6 | > 52.1 | > 26 | > 49 | > 36.6 | > 36.6
C=C[C@@](C)(/C=C/c1ccc(O)c(/C=C/c2ccc(F)cc2)c1)CCC=C(C)C | > 43.5 | > 36.6 | > 52.1 | > 26 | > 49 | > 36.6 | > 36.6
CCOC(=O)/C(C)=C/c1cc(/C=C/[C@](C)(/C=C/c2ccc(OC)cc2)CCC=C(C)C)ccc1O | > 43.5 | > 36.6 | > 52.1 | > 26 | > 49 | > 36.6 | > 36.6
C=C[C@@](C)(/C=C/c1ccc(OS(=O)(=O)c2ccc(C)cc2)cc1)CCC=C(C)C | > 43.5 | > 43.5 | > 52.1 | > 26 | > 49 | > 36.6 | > 36.6
C=C[C@@](C)(/C=C/c1ccc(Nc2cc(F)c(F)cc2F)cc1)CCC=C(C)C | > 43.5 | > 36.6 | > 52.1 | > 26 |  | > 36.6 | > 36.6
C=C[C@@](C)(/C=C/c1ccc(Nc2ccc(Cl)c(F)c2)cc1)CCC=C(C)C | > 43.5 | > 36.6 | > 52.1 | > 26 |  | > 36.6 | > 36.6
C=C[C@@](C)(/C=C/c1ccc(Nc2cc(F)cc(F)c2)cc1)CCC=C(C)C | > 43.5 | > 36.6 | > 52.1 | > 26 |  | > 36.6 | > 36.6
C=C[C@@](C)(/C=C/c1ccc(Nc2ccc(F)c(F)c2)cc1)CCC=C(C)C | > 43.5 | > 36.6 | > 52.1 | > 26 |  | > 36.6 | > 36.6
C=C[C@@](C)(/C=C/c1ccc(-c2cccc(F)c2)cc1)CCC=C(C)C | > 43.5 | > 36.6 | > 52.1 | > 26 |  | > 36.6 | > 36.6
C=C[C@@](C)(/C=C/c1ccc(Nc2ccc3c(c2)OCO3)cc1)CCC=C(C)C | > 43.5 | > 36.6 | > 52.1 | > 26 |  | > 36.6 | > 36.6
CC(C)=CCC[C@](C)(/C=C/c1ccc(O)cc1)/C=C/c1cccc(F)c1 | > 43.5 | > 36.6 | > 52.1 | > 26 |  | > 36.6 | > 36.6
